# Laboratory results published in paper PMC7985297 (Communications Biology, 2021).
# “And” between values parts separate entries of the source, which are not always exact repeats. Identical values can stand only once.
# Columns and labels:
# [1] = target: T1, full-length AR (Homo sapiens, UniProt P10275, T878A); experiment: PSA(6.1 kb)-luciferase AR-driven reporter assay in LNCaP cells; format: cell-based; settings: for fractional response (Fig. 5g): monotherapy or with 5 µM ATRA
# T1 construct: Transcriptional activity of full-length AR was assessed in LNCaP cells; endogenous in cells; host or cells: LNCaP
# T1 sequence (P10275 1-920 T878A): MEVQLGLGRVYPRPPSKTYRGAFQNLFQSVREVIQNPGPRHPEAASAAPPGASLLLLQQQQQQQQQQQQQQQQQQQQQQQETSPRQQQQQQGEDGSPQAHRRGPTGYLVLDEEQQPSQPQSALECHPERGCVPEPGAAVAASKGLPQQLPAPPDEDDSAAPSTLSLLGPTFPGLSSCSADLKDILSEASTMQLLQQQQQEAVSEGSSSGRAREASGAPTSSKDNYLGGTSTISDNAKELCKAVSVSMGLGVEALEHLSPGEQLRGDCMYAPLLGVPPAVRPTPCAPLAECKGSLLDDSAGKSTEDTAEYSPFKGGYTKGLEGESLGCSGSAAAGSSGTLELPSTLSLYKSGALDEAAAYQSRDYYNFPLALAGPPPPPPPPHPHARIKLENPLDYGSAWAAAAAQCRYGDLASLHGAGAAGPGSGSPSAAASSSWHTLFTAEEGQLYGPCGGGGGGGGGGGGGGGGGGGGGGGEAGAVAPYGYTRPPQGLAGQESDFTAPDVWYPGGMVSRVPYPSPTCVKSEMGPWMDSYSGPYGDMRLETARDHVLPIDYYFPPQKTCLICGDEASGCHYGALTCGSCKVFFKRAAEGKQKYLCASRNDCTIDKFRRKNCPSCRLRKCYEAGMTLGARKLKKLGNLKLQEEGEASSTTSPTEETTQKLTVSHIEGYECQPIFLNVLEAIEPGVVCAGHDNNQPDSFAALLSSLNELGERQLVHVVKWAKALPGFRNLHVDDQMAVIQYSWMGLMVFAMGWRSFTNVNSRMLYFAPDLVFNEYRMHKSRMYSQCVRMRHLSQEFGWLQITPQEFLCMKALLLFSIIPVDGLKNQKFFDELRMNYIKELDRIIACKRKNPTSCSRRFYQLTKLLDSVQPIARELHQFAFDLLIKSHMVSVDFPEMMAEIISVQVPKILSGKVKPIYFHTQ
# [2] = target: T2, human AR NTD (AR1–558) fused to Gal4DBD (Gal4-ARN) (Homo sapiens, UniProt P10275); experiment: AR NTD transactivation assay (Gal4-ARN) in LNCaP cells; format: cell-based; settings: EPI-002 25 μM, juglone 20 μM, ATRA 10 μM, 24 h
# T2 construct: construct encoding the human AR1–558 of the NTD fused to a Gal4DBD (Gal4-ARN); expressed in transfected cells; host or cells: LNCaP
# T2 sequence (P10275 1-558): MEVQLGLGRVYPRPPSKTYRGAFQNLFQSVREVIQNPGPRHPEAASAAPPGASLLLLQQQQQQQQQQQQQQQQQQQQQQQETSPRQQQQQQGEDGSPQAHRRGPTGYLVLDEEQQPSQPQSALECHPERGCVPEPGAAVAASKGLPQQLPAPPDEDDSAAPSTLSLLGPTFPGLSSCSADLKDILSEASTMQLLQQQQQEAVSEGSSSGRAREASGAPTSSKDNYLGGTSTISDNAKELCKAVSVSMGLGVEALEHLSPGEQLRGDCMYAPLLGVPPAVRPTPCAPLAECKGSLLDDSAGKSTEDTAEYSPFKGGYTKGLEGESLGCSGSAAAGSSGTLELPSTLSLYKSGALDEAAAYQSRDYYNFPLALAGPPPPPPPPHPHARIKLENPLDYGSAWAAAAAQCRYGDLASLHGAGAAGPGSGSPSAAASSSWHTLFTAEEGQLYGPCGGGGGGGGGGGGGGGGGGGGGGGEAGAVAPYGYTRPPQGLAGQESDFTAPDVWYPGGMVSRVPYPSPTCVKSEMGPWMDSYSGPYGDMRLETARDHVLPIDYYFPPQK
# From the text: The remaining putative Pin1-binding sites are within the intrinsically disordered AR NTD that contains transcription activation units, Tau-1 and Tau-5, to mediate androgen-dependent and androgen-independent transactivation, respectively[5],[30]. The loss of AR-LBD shifts the location of transcriptional activity from Tau-1 with androgen, to Tau-5 in the absence of LBD[30].
# Error bars show the mean ± s.e.m. *P < 0.05, **P < 0.01, ***P < 0.001; ns not significant.
# [3] = test system: LN95 cells; experiment: BrdU incorporation assay, LN95; format: cell-based, human; settings: ENZ 10 µM, EPI-002 25 µM, JUG 20 µM, ATRA 10 µM
# Procedure: (§1) Cells were treated with the inhibitors and stimulated with 1 nM of R1881 (+) or vehicle (−) for 24 to 72 h. Each data point represents the average from an independent experiment where the error bars show the mean ± s.e.m.
# (§2) BrdU incorporation was determined with the colorimetric BrdU ELISA kit (Roche Diagnostics), according to the manufacturer’s protocol. In brief, cells were seeded in 96-well plates (LNCaP, 5000/well; LN95, 8000/well; PC-3 and DU145, 4000/wells) in media with reduced serum (0.5–1%). On the following day, cells were pre-treated with test compounds for 1 h and then incubated with 0.1 nM of R1881. After the indicated incubation times, cells were labeled with 10 μM of BrdU for 2 h and then fixed for the assay.
# [4] = test system: PC-3 cells; experiment: BrdU incorporation assay, PC-3; format: cell-based, human; settings: − R1881; ENZ 10 µM, EPI-002 25 µM, JUG 20 µM, ATRA 10 µM
# Procedure: as §1, §2
# [5] = test system: DU145 cells; experiment: BrdU incorporation assay, DU145; format: cell-based, human; settings: − R1881; ENZ 10 µM, EPI-002 25 µM, JUG 20 µM, ATRA 10 µM
# Procedure: as §1, §2
# [6] = test system: LN95 cells; experiment: Colony formation of LN95 cells; format: cell-based, human; settings: LN95, ATRA 5 or 10 µM, EPI-002 25 µM, treated 24 hours then re-plated
# Procedure: page 5: Supplementary Figure 5 a b […] (a) Representative images of colonies from LN95 cells after […] EPI-002. After treating with compounds for 24 hours, the media was removed, and 500 -1,000 cells were re-plated in 6-well plates. Colonies were fixed with 4% paraformaldehyde, stained with a 0.1% crystal violet solution, and then imaged. […]
# [7] = led to excessive pill burden; cited from earlier work
# [8] = test system: LN95 cells; experiment: Senescence-associated β-galactosidase staining, LN95; settings: LN95, ATRA 10 μM, EPI-002 25 μM, 3 days
# Procedure: β-galactosidase activity at suboptimal pH (6.0) was used as a marker to detect cellular senescence[42]. Cells were seeded in four-well chamber slides at a density of 8000-10,000 cells. […] Three days later, the media was removed and cells were fixed with 2% formaldehyde/0.2% glutaraldehyde for 10 min at room temperature, washed with PBS, and then incubated with freshly prepared β-Gal staining solution (Cell Signaling) titrated to pH 6.0. Staining was optimal after incubating with the β-Gal solution at 37 °C for 16–18 h. After staining, the slides were washed twice with PBS, once with absolute methanol, and then mounted with 50% glycerol/PBS. The percentage of β-galactosidase-positive cells were counted with ImageJ using the Cell Counter plugin. A total of nine images containing 100–300 cells were scored to determine the percentages of positive cells.
# [9] = target: AR-V7 (Homo sapiens, UniProt P10275); experiment: Transcriptional reporter assay for AR-V7 (V7BS3-luciferase) in LNCaP cells; settings: enzalutamide 10 µM, EPI-002 25 µM, juglone 20 µM, ATRA 10 µM, 24 h
# Sequence of AR-V7 (P10275 1-644 isoform P10275-3): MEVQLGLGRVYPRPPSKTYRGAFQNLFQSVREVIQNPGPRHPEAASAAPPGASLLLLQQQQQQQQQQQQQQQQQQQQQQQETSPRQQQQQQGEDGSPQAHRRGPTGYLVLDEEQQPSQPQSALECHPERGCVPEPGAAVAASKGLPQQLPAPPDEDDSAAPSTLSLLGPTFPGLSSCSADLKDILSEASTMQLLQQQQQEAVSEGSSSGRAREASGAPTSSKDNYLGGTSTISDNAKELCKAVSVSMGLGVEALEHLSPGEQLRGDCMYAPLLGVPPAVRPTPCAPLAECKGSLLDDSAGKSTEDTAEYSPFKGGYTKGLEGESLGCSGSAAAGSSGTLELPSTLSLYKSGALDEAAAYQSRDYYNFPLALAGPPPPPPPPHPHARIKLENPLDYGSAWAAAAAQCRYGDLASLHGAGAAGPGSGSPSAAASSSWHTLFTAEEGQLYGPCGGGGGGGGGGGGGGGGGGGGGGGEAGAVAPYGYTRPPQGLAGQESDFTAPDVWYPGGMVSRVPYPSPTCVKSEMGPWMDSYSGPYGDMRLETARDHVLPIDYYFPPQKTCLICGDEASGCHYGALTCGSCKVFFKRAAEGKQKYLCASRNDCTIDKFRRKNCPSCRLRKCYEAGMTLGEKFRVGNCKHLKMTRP
smiles,measurement,setting,value
CC(C)(c1ccc(OC[C@H](O)CO)cc1)c1ccc(OC[C@H](O)CCl)cc1 [ralaniten],inhibition of reporter activity at highest concentration,[1]; 40 µM of ralaniten,~ 98%
same,fractional response (Fig. 5g),[1]; EPI-002 20 μM,0.8041 and 0.7145 and 0.7078 and 0.8391
same,fractional response (Fig. 5g),[1]; EPI-002 40 μM,0.9915 and 0.9757 and 0.9847 and 0.9439
same,effect on IL-6-induced transactivation of AR NTD (Gal4-ARN),[2]; IL-6 50 ng/mL,both blocked
same,effect on forskolin-induced transactivation of AR NTD (Gal4-ARN),[2]; forskolin 25 μM,both blocked
same,effect on proliferation of LN95 cells,[3],attenuated the proliferation of LN95 cells
same,"BrdU incorporation, PC-3 (Fig. 4c)",[4],0.683 and 1.048 and 0.96 and 1.348
same,"BrdU incorporation, DU145 (Fig. 4d)",[5],0.692 and 0.859 and 0.62
same,effect on colony formation,[6],significantly reduced the number of colonies
same,pharmacokinetics in clinical testing,[7],poor pharmacokinetics
same,SA β-gal-positive cells,[8],31%
same,effect on AR-V7-induced V7BS3-luciferase reporter activity,[9],decreased AR-V7-induced reporter activity
